The source of these data is ChEMBL document CHEMBL1143554, “4-phenoxypiperidines: potent, conformationally restricted, non-imidazole histamine H3 antagonists” (J Med Chem, 2005).

Test [1] addresses T1, Histamine H3 receptor (Homo sapiens, UniProt Q9Y5N1). In words: Mean functional activity against human H3 receptor. The conditions noted are these: read-out: pA2 (converted).
Test [2] deals with T1, Histamine H3 receptor. In words: Mean binding affinity for human H3 receptor.

pKi: −log10 of the molar value.

T1 sequence (Q9Y5N1 whole entry): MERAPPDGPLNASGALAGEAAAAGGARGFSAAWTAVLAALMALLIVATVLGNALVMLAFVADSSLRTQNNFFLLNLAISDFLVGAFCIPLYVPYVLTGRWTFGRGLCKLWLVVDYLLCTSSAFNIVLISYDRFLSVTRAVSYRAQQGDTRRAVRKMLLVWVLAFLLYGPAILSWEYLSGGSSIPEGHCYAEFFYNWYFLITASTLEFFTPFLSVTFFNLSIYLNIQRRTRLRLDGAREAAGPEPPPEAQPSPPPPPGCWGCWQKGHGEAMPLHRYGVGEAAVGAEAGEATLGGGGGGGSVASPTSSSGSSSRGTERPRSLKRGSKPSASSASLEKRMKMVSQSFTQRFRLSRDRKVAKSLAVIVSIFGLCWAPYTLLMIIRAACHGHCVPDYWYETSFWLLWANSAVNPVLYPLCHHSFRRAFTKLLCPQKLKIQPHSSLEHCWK

A word on the pKi: it is −log10 of the Ki, conventionally taken in molar units. A low value points to a large Ki. As to `CCCCN(C)Cc1ccc(OC2CCN(C(C)C)CC2)cc1`, at Histamine H3 receptor [1], the Kb was 0.339 nM. The compound also showed a pKi on Histamine H3 receptor [2] of 8.83. On to `CC(C)N1CCC(Oc2ccc(CN3CCC(O)CC3)cc2)CC1`, for which the Kb on Histamine H3 receptor [1] is 0.331 nM. The compound also had a pKi at Histamine H3 receptor [2] of 8.85. For the compound `CC(C)N1CCC(Oc2ccc(CN3CCCN(C)CC3)cc2)CC1`, the Kb at Histamine H3 receptor [1] is 0.324 nM. On Histamine H3 receptor [2], this compound gave a negative-log Ki (pKi) of 9.00. The matching figures for `CC(C)N1CCC(Oc2ccc(CNc3ccccc3)cc2)CC1`: 2.69 nM and 8.26. The compound `CCC(CC)N1CCN(C(=O)CCC(=O)c2ccc(Cl)cc2)CC1` gave a pKi at Histamine H3 receptor [2] of 9.06. `CC(C)N1CCC(Oc2ccc(CNC3CC3)cc2)CC1`: the Kb at Histamine H3 receptor [1] was 0.457 nM. In addition, the negative-log Ki (pKi) at Histamine H3 receptor [2] was 8.79. For `CC(C)CN1CCC(Oc2ccc(C#N)cc2)CC1`, the negative-log Ki (pKi) on Histamine H3 receptor [2] was 7.18.

Regarding `CC(C)N1CCC(Oc2ccc(CN3CCC(CO)CC3)cc2)CC1`, the Kb at Histamine H3 receptor [1] is 0.257 nM. On Histamine H3 receptor [2], this compound gave a negative logarithm of the Ki (pKi) of 9.00. The compound `CCC(C)N1CCC(Oc2ccc(C#N)cc2)CC1` (stereo not given) showed a negative-log Ki (pKi) on Histamine H3 receptor [2] of 7.82. The compound `N#Cc1ccc(OCCCCCN2CCCC2)cc1` showed a pKi on Histamine H3 receptor [2] of 7.72.

`CC(C)N1CCC(Oc2ccc(CN3CCN(Cc4ccccc4)CC3)cc2)CC1`: the Kb on Histamine H3 receptor [1] was 0.661 nM. This compound gave a pKi at Histamine H3 receptor [2] of 8.70. Compound `N#Cc1ccc(OC2CCN(C3CCCCC3)CC2)cc1` showed a negative logarithm of the Ki (pKi) at Histamine H3 receptor [2] of 7.49.

Consider `C[C@@H]1CCCN1CCc1cc2cc(C#N)ccc2o1`, for which the negative-log Ki (pKi) on Histamine H3 receptor [2] was 9.35. Still for that read-out and setting: with `N#Cc1ccc(OC2CCNCC2)cc1` the figure was less than 5.00; with `CC(CO)N1CCC(Oc2ccc(C#N)cc2)CC1` (stereo not given), 6.12.

As for `CCN(CC)Cc1ccc(OC2CCN(C(C)C)CC2)cc1`, on Histamine H3 receptor [1], the Kb is 0.468 nM. For the same compound, the negative-log Ki (pKi) at Histamine H3 receptor [2] is 8.91. Regarding `CC(C)N1CCC(Oc2ccc(CN3CCCCCC3)cc2)CC1`, at Histamine H3 receptor [1], the Kb was 0.174 nM. In addition, the negative logarithm of the Ki (pKi) at Histamine H3 receptor [2] is 8.77. `CC(C)N1CCC(Oc2ccc(CN(C)CCN(C)C)cc2)CC1`: the Kb at Histamine H3 receptor [1] was 0.214 nM. Besides, at Histamine H3 receptor [2], the pKi was 8.94. The matching figures for `CC(C)N1CCC(Oc2ccc(CN3CCN(c4ccccc4)CC3)cc2)CC1`: 1.02 nM and 8.70.

`Cc1ccc2nc(-c3ccc(OCCCN4CCCCC4)cc3)cn2c1`: the Kb at Histamine H3 receptor [1] was 2.04 nM. The compound `CCCN1CCC(Oc2ccc(C#N)cc2)CC1` gave a negative-log Ki (pKi) on Histamine H3 receptor [2] of 6.97.

For `CC(C)N1CCC(Oc2ccc(CN3CCC(Cc4ccccc4)CC3)cc2)CC1`, the Kb on Histamine H3 receptor [1] is 0.813 nM. This compound gave a pKi at Histamine H3 receptor [2] of 8.84. The matching figures for `CC(C)N1CCC(Oc2ccc(CN3CCN(C)CC3)cc2)CC1`: 0.257 nM and 9.13. Turning to `CC(C)N1CCC(Oc2ccc(CNc3ccccn3)cc2)CC1`, at Histamine H3 receptor [1], the Kb is 0.741 nM. This compound also gave a pKi on Histamine H3 receptor [2] of 8.65. The matching figures for `CC(C)N1CCC(Oc2ccc(CN3CCCCC3)cc2)CC1`: 0.126 nM and 9.20. For `CC(C)N1CCC(Oc2ccc(CN(C)C)cc2)CC1`, the Kb on Histamine H3 receptor [1] is 1.17 nM. Besides, the negative logarithm of the Ki (pKi) at Histamine H3 receptor [2] was 8.52. `CCN1CCC(Oc2ccc(C#N)cc2)CC1`: the pKi on Histamine H3 receptor [2] was 7.09. As to `CC(C)N1CCC(Oc2ccc(CN3CCCC3)cc2)CC1`, the Kb on Histamine H3 receptor [1] was 0.355 nM. On Histamine H3 receptor [2], this compound had a negative-log Ki (pKi) of 8.71.
